Laboratory results taken from patent US10808008B2, “Aromatic-cationic peptides and uses of same” (Cornell University, priority 2012, dated 2020).
“Also recorded” adds a separate entry of the source.

Key:
[1] = Fluorescence spectroscopy of labelled peptide with other phospholipids; type: binding; settings: 1 μM peptide
Procedure: 1-palmitoyl-2-oleoyl-sn-glycero-3-phosphocholine (POPC), 1-palmitoyl-2-oleoyl-sn-glycero-3-phosphate (POPA), 1-palmitoyl-2-oleoyl-sn-glycero-3-phospho-L-serine (POPS), 1-palmitoyl-2-oleoyl-sn-glycero-3-phosphoethanolamine (PE), and 1,2-dipalmitoyl-sn-glycero-3-phospho-(1′-rac-glycerol) (DPPG) were obtained from Avanti Polar Lipids Inc (Alabaster, Ala.).
Changes in the emission intensity of the [atn]SS-02 and the [ald]SS-02 were measured using a Hitachi F-4500 fluorescence spectrophotometer. The different solvents used to dissolve the various phospholipids (chloroform, methanol and ethanol) had negligible effect on the fluorescence spectrum of [atn]SS-02 and [ald]SS-02. All experiments were done in low ionic solution (deionized water) to optimize electrostatic interactions of peptides with phospholipids.

[2] = molecular target: T1, cytochrome c (Equus caballus, UniProt P00004); assay: Fluorescence quenching of labelled peptides by cytochrome c; type: binding, horse; parameters: from tissue; host or cells: horse heart; settings: additions of 75 μg/ml BSA
[3] = system: isolated rat kidney mitochondria; assay: O2 consumption in isolated mitochondria; type: biochemical
Procedure: Fresh mitochondria were isolated from rat kidney as described previously. Electron flux was measured by O2 consumption (Oxygraph Clark electrode) as previously described using different substrates for C1 (glutamate/malate), C2 (succinate), and C3 (TMPD/ascorbate). Assays were carried out under low substrate conditions in order to avoid saturating the enzyme reactions. ATP production in isolated mitochondria was determined kinetically using the luciferase method (Biotherma) in a 96-well luminescence plate reader (Molecular Devices). The initial maximal rate for ATP synthesis was determined over the first minute.
Oxygen consumption of isolated rat kidney mitochondria was determined using the Oxygraph (FIG. 5). Rates of respiration were measured in the presence of different concentrations of SS-31 in state 2 (400 μM ADP only), state 3 (400 μM ADP and 500 μM substrates) and state 4 (substrates only). All experiments were done in triplicate with n=4−7. […] Accordingly, aromatic-cationic peptides of the present disclosure are useful for promoting electron transfer to oxygen without uncoupling mitochondria, increasing O2 consumption, and treating diseases or conditions related to dysregulation of O2 consumption in mitochondria.
SS-20 or SS-31 was added at 100 μM concentrations to isolated mitochondria in respiration buffer containing 0.5 mM succinate (complex II substrate) and 400 μM ADP. Similar increases in O2 consumption were observed when low concentrations of complex I substrates (glutamate/malate) were used (data not shown). […] Accordingly, targeting SS-20 and SS-31 to the IMM can facilitate electron flux in the electron transport chain and improve ATP synthesis, especially under conditions of reduced substrate supply.
SS-20 or SS-31 was added at 10 μM or 100 μM concentrations to isolated mitochondria in respiration buffer containing glutamate/malate (complex I substrate), 0.5 mM succinate (complex II substrate) or 3 μM TMPD/1 mM ascorbate (direct reductant of cytochrome c). 400 μM ADP was added to initiate State 3 respiration.

[4] = molecular target: T1, cytochrome c; assay: Cytochrome c reduction kinetics (absorption spectroscopy); type: biochemical
Procedure: Increasing amounts of aromatic-cationic peptides were added to a solution of oxidized cytochrome c. The formation of reduced cytochrome c was monitored by absorbance at […]. The rate of cytochrome c reduction was determined by non-linear analysis (Prizm software).
Time-resolved UV-Visible absorption spectroscopy was used to study the electron transport process of cytochrome c in the presence of peptides. Reduced cytochrome c was monitored by absorbance at a broad-band spectral range (200-1100 nm). The absorption changes were recorded with a UV/Visible spectrophotometer (Ultrospec 3300 pro, GE) in quartz cells with path lengths of 1 or 2 mm. N-acetylcysteine (NAC) and glutathione were used as electron donors to reduce oxidized cytochrome c. The rate constant of cytochrome c reduction was estimated by adding various concentrations of peptides. The dose dependence of the peptides was correlated to the cytochrome c reduction kinetics.
Absorption spectroscopy (UltroSpec 3300 Pro; 220-1100 nm) was used to determine if SS-31 modulates cytochrome c reduction (FIG. 1). Reduction of cytochrome c with glutathione is associated with multiple shifts in the Q band (450-650 nm), with a prominent shift at 550 nm. […] Accordingly, the aromatic-cationic peptides of the present disclosure are useful for altering the structure and oxidation state of cytochrome c, and are useful for the prevention or treatment of diseases or disorders characterized by dysregulation of cytochrome c.
Reduction of cytochrome c was monitored by increase in absorbance at 550 nm. […] Similar results were obtained using N-acetylcysteine (NAC) as a reducing agent (not shown). […] Accordingly, aromatic-cationic peptides of the present disclosure are useful for the prevention or treatment of diseases or disorders characterized by dysregulation of cytochrome c and are useful for facilitating cytochrome c reduction.

[5] = molecular target: T1, cytochrome c; assay: Photoluminescence of cytochrome c; type: biochemical; settings: excitation 532.8 nm
Procedure: Photoluminescence (PL) was carried out to examine the effects of SS-31 on the electronic structure of conduction band of the heme of cytochrome c, an energy state responsible for electronic transport (FIG. 3). A […] laser (532.8 nm) was used to excite electrons in cytochrome c (FIG. 3A). Strong PL emission in cytochrome c state can be clearly identified at 650 nm (FIG. 3B). […] Accordingly, aromatic-cationic peptides of the present disclosure are useful for the prevention or treatment of diseases or disorders characterized by dysregulation of cytochrome c, for enhancing electron capacity in cytochrome c, and for treatment of diseases or disorders characterized by dysregulation of electron capacity in cytochrome c.

[6] = system: cytochrome c-depleted mitoplasts; assay: Respiration in cytochrome c-depleted mitoplasts; type: biochemical, rat
Procedure: Rates of respiration were measured in the presence of 500 μM Succinate with or without 100 μM SS-31. The experiment was carried out in triplicate, with n=3. […] Accordingly, aromatic-cationic peptides of the present disclosure are useful for the prevention or treatment of diseases or disorders characterized by dysregulation of cytochrome c.
A model of cytochrome c tightly bound to mitochondrial cardiolipin was used to investigate interaction of SS-31 with cytochrome c-CL complex in mitochondria. After removal of outer membrane with digitonin, mitoplasts were washed with 120 mM KCl to remove all free and electrostatically associated cytochrome c, leaving only cytochrome c tightly bound to CL.

[7] = molecular target: T1, cytochrome c; assay: Cyclic voltammetry of cytochrome c; type: biochemical

T1 sequence (P00004 2-105 limits assumed): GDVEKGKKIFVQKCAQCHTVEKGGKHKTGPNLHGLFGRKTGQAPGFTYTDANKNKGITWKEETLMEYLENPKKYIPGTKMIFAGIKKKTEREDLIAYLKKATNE

For 2′,6′-Dmt-D-Arg-Ald-Lys-NH2 [SS-36], the “interaction with POPC, POPE and neutral cholesterol” value [1] was “No interaction”.
In the case of “2′,6′-Dmt-D-Arg-Phe-(atn)Dap-NH2 [SS-19]”, the “reversal of cytochrome c quenching by BSA” value [2] is reported as “did not reverse quenching”.
In the case of D-Arg-2′,6′-Dmt-Lys-Phe-NH2 [SS-31], the “O2 consumption in state 3 respiration” value ([3]; 10 μM or 100 μM peptide, complex I or complex II substrates or TMPD/ascorbate, 400 μM ADP) is reported as “increased O2 consumption in state 3 respiration”, the “electron flux measured by O2 consumption” value ([3]; 100 μM peptide, 0.5 mM succinate, 400 μM ADP) is reported as “promote electron flux” and the “electron transfer to oxygen (rates of respiration)” value ([3]; state 2, state 3 and state 4, different concentrations of SS-31) is reported as “promoted electron transfer to oxygen without uncoupling mitochondria”. The “rate of NAC-induced cytochrome c reduction” value ([4]; N-acetylcysteine (NAC) as reducing agent) was “dose-dependently increased the rate of NAC-induced cytochrome c reduction”, the “rate (kinetics) of cytochrome c reduction” value ([4]; glutathione (GSH) as reducing agent, absorbance at 550 nm) was “increased the rate of cytochrome c reduction; also recorded: accelerate the kinetics of cytochrome c reduction” and the “reduction of cytochrome c by peptide alone” value ([4]; peptide alone at 100 μM) was “did not reduce cytochrome c”. The “spectral weight shift in Q band of cytochrome c” value ([4]; reduction of cytochrome c with glutathione) was “significant spectral weight shift at 550 nm”, the “photoluminescence (PL) intensity of cytochrome c at 650 nm” value [5] was “increased dose-dependently” and the “respiration (O2 consumption) in cytochrome c-depleted mitoplasts” value ([6]; 500 μM succinate, 100 μM SS-31) was “Enhances Respiration in Cytochrome c-Depleted Mitoplasts”. For the same substance, the “complex II respiration in mitoplasts with tightly bound cytochrome c” value ([6]; mitoplasts washed with 120 mM KCl) was “enhances complex II respiration in mitoplasts with cytochrome c tightly bound to inner mitochondrial membrane in a dose-dependent manner”, the “reduction/oxidation potentials of cytochrome c” value [7] was “does not alter reduction/oxidation potentials” and the “current of cytochrome c reduction and oxidation processes” value ([7]; Au working electrode, Ag/AgCl reference) was “increased current for both reduction and oxidation processes of cytochrome c”. For the same substance, the “increase of current (electron diffusion rate)” value ([7]; cytochrome c:SS-31=1:2, TBE buffer) was about 200%.
